Series [1] relates to LLC-PK1 cell line (C4) transfected with vector alone. In words: Cytotoxicity by sulforhodamine B dye-staining, clone C4 (vector alone). Format: cell-based, porcine. The note with it: Sus scrofa, no ABCG2, 72 hours, 37° C., read-out: IC50 for cell viability. On the procedure:
(§1) Among the polymorphic mutations identified in Example 1, two mutations—G34A and C421A—having a high possibility to affect the function of the ABCG2 polypeptide were prepared and introduced into animal cells as an endeavor to analyze their functions. Preparation of the mutated ABCG2 genes was conducted by PCR and a point mutation was introduced. […] As a control, a plasmid expressing the wild type (WT) ABCG2 and the vector plasmid pcDNA3.1(+) alone without the ABCG2 gene were used and those four kinds of expression plasmids were introduced to an animal cell (porcine kidney cell line) LLC-PK1 by lipofection method (Lipofectamine; Gibco BRL). Stable transfectants were selected with 1,500 μg/ml of Geneticin (Gibco BRL) for two weeks and cell lines were established. To determine the expressed level of ABCG2 in each cell line, total RNA was extracted from each transfectant cells and HeLa cells with Trizol (Gibco BRL). Seven microgram of the total RNA extracted from each clone of cell and full length ABCG2 cDNA (2.2 kb) probe labeled with ^32P were used for Northern hybridization. […]
(§2) All of the incubations were carried out at 37° C. under the humidified atmosphere containing 5% of carbon dioxide. The cytotoxicity of anticancer drugs was determined by sulforhodamine B dye-staining method and compared with each other. […]

Another series relates to ABCG2 (wild type). The series is described as follows: Cytotoxicity by sulforhodamine B dye-staining, clone 1-58 (wild type ABCG2). Particulars: pig. Here is the method: as §1, §2
(In SRB staining, fixed cells bind dye roughly in proportion to their protein.)

For series [2], the system named is LLC-PK1 cell line (1-58) expressing the wild type ABCG2. Described as above. Particulars: among the four transfectant clones C4, 1-58, 2-51, 3-28. On the procedure:
as §1, §2

The test system of a further series is ABCG2 (Val12Met mutant). The series is described as follows: Cytotoxicity by sulforhodamine B dye-staining, clone 2-51 (ABCG2 Val12Met). Particulars: pig. On the procedure:
as §1, §2

A further series concerns ABCG2 (Gln141Lys mutant). In words: Cytotoxicity by sulforhodamine B dye-staining, clone 3-28 (ABCG2 Gln141Lys). Particulars: pig. Here is the method: as §1, §2

The values that follow come from patent US20080182267A1, “METHOD FOR PREDICTING A DRUG TRANSPORT CAPABILITY BY ABCG2 POLYMORPHISMS” (BANYU PHARMACEUTICAL CO., Ltd., priority 2002, published 2008).

pIC50: −log10 of the molar value.

For orientation: pIC50 means the IC50 on a negative log10 scale, so that one unit is a factor of ten. Usually IC50 stands for the point on the concentration scale where inhibition reaches its midpoint. Low values mean higher potency, high ones lower potency. Turning to `CC[C@@]1(O)C(=O)OCc2c1cc1n(c2=O)Cc2cc3ccccc3nc2-1` [Camptothecin, camptothecin], the negative logarithm of the IC50 (pIC50) in series [1] was 8.06. For the same molecule, the half-inhibitory concentration (IC50) at 72 h stood at 21.3 nM with ABCG2 (wild type), 12.2 nM in the series on ABCG2 (Val12Met mutant) and 26.8 nM in the series with ABCG2 (Gln141Lys mutant). Also, in series [2], the “difference in terms of the resistance among the cells” value was “no significant difference”.
